Patent US8563578B2, “Antitumor properties of NO modified protease inhibitors” (Onconox APS, priority 2008, dated 2013)

What was measured:
[1] = tested on: B16 cells; assay: LDH release assay, B16; assay type: cell-based; conditions: for LDH release (cytotoxicity, necrosis): 24 h, different doses
Method: (§1) Reduction of 3-4,5-dimethylthiazol-2-yl)-2,5-diphenyltetrazolium bromide (MTT) to formazan depends on mitochondrial activity of cultured cells, absorption of crystal violet dye correlates with the number of adherent, live cells, while the release of cytosolic lactate dehydrogenase (LDH) indicates the disruption of membrane integrity caracteristic for necrotic cells. […] Mitohondrial-dependent production of formazan and intensity of absorbed crystal violet by adherent cells were assessed by an automated microplate reader at 570 nm, while the pyruvate-mediated conversion of 2,4-dinitrophenylhydrazine into visible hydrazone precipitate in LDH assay was measured at 492 nm. The % of cytotoxicity as indicated by LDH release was calculated as: (E−C)/(T−C)×100, where E is the experimental absorbance of cell cultures, C is the control absorbance of cell-free culture medium, and T is the absorbance corresponding to the maximal (100%) LDH release of Triton-lysed cells.
(§2) FIG. 4. […] Results are calculated as indicated in materials and methods and presented as mean±SD from representative of three independent experiment (*p <0.05). […] After 24 h of cultivation without or with drugs, cells were stained with AO orange (B) or PI (C) and analyzed by flow cytometry. The data are presented as mean±SD from three independent experiments. *p<0.05, refers to untreated cultures. […] Cells were incubated with 18.8 μM of Sag or Saq-NO2 for 24 h. After that, the drugs were either removed or not from the cells and incubated for additional 24 h. Cell viability was determined by CV test after 24 and 48 h of incubation (right panels). The data are presented as mean±SD from three independent experiments. *p<0.05, refers to untreated cultures.

[2] = tested on: tyrosinase of B16 cells; assay: Tyrosinase activity assay, B16; assay type: cell-based, mouse; conditions: 18.8 μM, 24 h
Method: (§3) Tyrosinase activity was determined by measuring the rate of oxidation of L-DOPA^34. Briefly, sub-confluent cultures in 6-well plate were lysed in 100 μl phosphate buffer pH 6.8-1% Triton X-100 and than centrifuged at 10000 rpm for 5 min. 40 μl of each extract was mixed with 100 μl of L-DOPA substrate solution (2 mg/ml). Enzymatic reaction was carried out at 37° C. and the absorbance at 570 nm was read every 10 min for at least 1 h. The final activity was corrected by the total amount of protein estimated by Bradford assay. For melanin determination cells were incubated in 6 well plate for 24 h, trypsinized, counted and than lysed in 100 μl of 1M NaOH. 400 μl of distilled water was added and samples were incubated at 60° C. for 1 h. Thereafter, absorbance of dissolved dye was measured at 492 nm.
(§4) FIG. 5. […] Cell morphology was assessed by light microscopy (A). Markers of cell differentiation of C6 and B16 cells, galactocerebroside, GFAP and MBP were determined by cELISA and melanin and tyrosinase activity were determined as described in material and methods (B). Cyclin D3 and p53 expression were evaluated by cELISA (C, upper panels), immunocytochemistry (C, middle panel) and Western blot (C, lower panel). The results were presented as mean±SD from three independent experiments. *p<0.05, refers to untreated cultures.

[3] = tested on: B16 cells; assay: Melanin determination, B16; assay type: cell-based, mouse; conditions: 18.8 μM, 24 h
Method: as §3, §4

[4] = tested on: CCR% e CXCR4 strains; assay: In-vitro anti-HIV activity; assay type: cell-based
[5] = tested on: B16 cells; assay: Cell proliferation by CFSE staining, B16; assay type: cell-based, mouse; conditions: 18.8 μM, 48 h, B16 cells which survived the treatment
Method: Rate of cell proliferation was verified by flow cytometric analysis of cells labelled with CFSE (Kang et al. 2005). CFSE dye is stable in cytoplasm more than 15 generations and the intensity of fluorescence decline after each division. Briefly, detached cells were stained with 1.5 μM CFSE for the 15 min at 37° C., washed 2 times, seeded in 6-well plates at 2×10^5 cells/well and then exposed to drugs. After 24 and 48 h of cultivation cells were trypsinized and washed 2 times. Finally, the cells were resuspended in PBS and analyzed by flow cytometry. Green fluorescence emission was measured with a FACSCalibur (BD, Heidelberg, Germany) and analyzed using CellQuest software.
as §2, with “panels). […]” for “panels). The data are presented as mean±SD from three independent experiments. *p<0.05, refers to untreated cultures.”

[6] = tested on: C6 rat astrocytoma; assay: Cell viability, C6 cells; assay type: cell-based; conditions: read-out: reduction of cell viability
From the text: Rat glioma C6 and human glioblastoma U251 cell lines were a kind gift from Dr. Pedro Tranque (Universidad de Castilla-La Mancha, Albacete, Spain), murine melanoma B 16, and human adenocarcinoma HeLa, were a kind gift from Dr. Sinisa Radulovic (Institute for Oncology and Radiology of Serbia, Belgrade, Serbia) while mouse fibrosarcoma L929 was obtained from the European Collection of Animal Cell Cultures (Salisbury, UK). Human breast HCC1419 and prostate PC-3 cells were purchased from LGC Promochem srl (Venezia, Italy). Primary mouse fibroblasts and rat astrocytes were prepared as described (Mijatovic et al. 2004). […]
as §1, with “The % of cytotoxicity as indicated by LDH release was calculated as: (E−C)/(T−C)×100, where E is the experimental absorbance of cell cultures, C is the control absorbance of cell-free culture medium, and T is the absorbance corresponding to the maximal (100%) LDH release of Triton-lysed cells.” left out
FIG. 2. […] Cell viability was then evaluated by CV test. […]

SMILES | LDH release (cytotoxicity, necrosis) [1] | tyrosinase activity [2] | melanin content [3] | in-vitro anti-HIV activity compared with Saquinavir [4] | LDH release (cytotoxicity, necrosis) ([1]; listed as Saq-NO) | cytotoxicity at 18.8 µM ([1]; Mus musculus, 18.8 μM, 18 h of exposure, control 2.3%) | dividing potential [5] | cytotoxicity at 18.8 µM [6]
CC(C)(C)NC(=O)[C@@H]1C[C@@H]2CCCC[C@@H]2CN1C[C@@H](O)[C@H](Cc1ccccc1)NC(=O)[C@H](CC(N)=O)NC(=O)c1ccc2ccccc2n1 [Saq, Saquinavir, reference compound] | induced LDH release in both cell lines in a dose-dependent way | increased | increased |  |  |  |  | 
CC(C)(C)NC(=O)[C@@H]1C[C@@H]2CCCC[C@@H]2CN1C[C@@H](O[N+](=O)[O-])[C@H](Cc1ccccc1)NC(=O)[C@H](CC(N)=O)NC(=O)c1ccc2ccccc2n1 [Saq-NO2, nitric ester of Saquinavir] | induced significant cytoxicity even at lowest dose tested | slight but significant decrease | unchanged | at least as high as that of Saquinavir | dose-dependent LDH release was detected upon all tested doses | 6.2% | decreased dividing potential | ~50%
